# Data as given in paper PMC6199744, “Development of Chemical Proteomics for the Folateome and Analysis of the Kinetoplastid Folateome” (ACS Infectious Diseases, 2018).
# Read-outs that look alike come from different tables or passages of the source.
# How the values were obtained:
# Format in all cases: binding
# [1] = target: T1, HeLa cell extract proteins (Homo sapiens, UniProt P62333); details: protein PSMC6; HeLa
# T1 construct: endogenous in cells; host or cells: HeLa cell extract
# [2] = target: T2, HeLa cell extract proteins (Homo sapiens, UniProt P07814); details: HeLa
# T2 construct: endogenous in cells; host or cells: HeLa cell extract
# T2 sequence (P07814 whole entry): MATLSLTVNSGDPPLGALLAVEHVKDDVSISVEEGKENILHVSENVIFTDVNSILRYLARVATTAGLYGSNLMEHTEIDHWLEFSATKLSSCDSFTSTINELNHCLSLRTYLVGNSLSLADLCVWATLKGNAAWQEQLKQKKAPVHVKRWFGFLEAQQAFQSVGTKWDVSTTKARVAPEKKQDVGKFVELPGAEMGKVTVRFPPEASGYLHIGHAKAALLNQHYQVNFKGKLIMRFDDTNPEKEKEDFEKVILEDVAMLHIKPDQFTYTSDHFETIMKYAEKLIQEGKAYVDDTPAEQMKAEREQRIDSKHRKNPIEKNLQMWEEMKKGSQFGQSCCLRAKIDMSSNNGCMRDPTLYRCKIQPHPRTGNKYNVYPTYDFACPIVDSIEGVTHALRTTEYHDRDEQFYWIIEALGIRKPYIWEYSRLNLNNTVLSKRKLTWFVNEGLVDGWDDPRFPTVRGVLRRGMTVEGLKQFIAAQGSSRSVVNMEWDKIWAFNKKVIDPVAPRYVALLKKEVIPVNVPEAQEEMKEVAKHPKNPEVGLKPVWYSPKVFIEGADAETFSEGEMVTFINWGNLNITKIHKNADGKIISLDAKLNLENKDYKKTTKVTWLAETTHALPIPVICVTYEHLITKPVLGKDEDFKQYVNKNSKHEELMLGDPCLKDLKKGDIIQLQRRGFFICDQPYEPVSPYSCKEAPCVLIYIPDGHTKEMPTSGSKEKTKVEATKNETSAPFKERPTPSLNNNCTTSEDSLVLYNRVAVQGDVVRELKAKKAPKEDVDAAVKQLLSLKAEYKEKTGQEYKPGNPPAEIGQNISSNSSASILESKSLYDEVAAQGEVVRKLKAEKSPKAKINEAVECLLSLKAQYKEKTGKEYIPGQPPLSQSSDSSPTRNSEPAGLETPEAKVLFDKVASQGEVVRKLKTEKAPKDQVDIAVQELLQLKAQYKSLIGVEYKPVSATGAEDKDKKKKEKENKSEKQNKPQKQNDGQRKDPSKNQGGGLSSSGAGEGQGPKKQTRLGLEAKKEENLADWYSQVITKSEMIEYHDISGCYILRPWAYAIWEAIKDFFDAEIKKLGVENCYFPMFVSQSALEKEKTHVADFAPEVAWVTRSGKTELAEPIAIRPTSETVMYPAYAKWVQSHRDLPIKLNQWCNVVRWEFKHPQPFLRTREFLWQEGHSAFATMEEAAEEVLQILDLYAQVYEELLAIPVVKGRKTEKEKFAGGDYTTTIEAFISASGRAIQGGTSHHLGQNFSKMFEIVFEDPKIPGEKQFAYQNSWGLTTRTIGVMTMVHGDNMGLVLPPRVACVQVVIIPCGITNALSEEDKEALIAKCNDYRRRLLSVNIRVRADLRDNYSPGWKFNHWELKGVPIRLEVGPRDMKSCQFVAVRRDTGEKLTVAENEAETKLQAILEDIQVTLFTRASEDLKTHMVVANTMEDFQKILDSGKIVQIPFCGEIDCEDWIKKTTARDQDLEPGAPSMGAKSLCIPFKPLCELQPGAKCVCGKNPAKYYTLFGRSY
# [3] = target: T3, HeLa cell extract proteins (Homo sapiens, UniProt P81605); details: protein DCD; HeLa
# T3 construct: endogenous in cells; host or cells: HeLa cell extract
# T3 sequence (P81605 20-110): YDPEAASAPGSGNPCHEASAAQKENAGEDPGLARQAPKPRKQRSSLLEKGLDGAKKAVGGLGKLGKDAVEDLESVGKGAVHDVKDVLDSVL
# [4] = target: T4, HeLa cell extract proteins (Homo sapiens, UniProt Q9UI12); details: HeLa; protein ATP6V1H
# T4 construct: endogenous in cells; host or cells: HeLa cell extract
# T4 sequence (Q9UI12 whole entry): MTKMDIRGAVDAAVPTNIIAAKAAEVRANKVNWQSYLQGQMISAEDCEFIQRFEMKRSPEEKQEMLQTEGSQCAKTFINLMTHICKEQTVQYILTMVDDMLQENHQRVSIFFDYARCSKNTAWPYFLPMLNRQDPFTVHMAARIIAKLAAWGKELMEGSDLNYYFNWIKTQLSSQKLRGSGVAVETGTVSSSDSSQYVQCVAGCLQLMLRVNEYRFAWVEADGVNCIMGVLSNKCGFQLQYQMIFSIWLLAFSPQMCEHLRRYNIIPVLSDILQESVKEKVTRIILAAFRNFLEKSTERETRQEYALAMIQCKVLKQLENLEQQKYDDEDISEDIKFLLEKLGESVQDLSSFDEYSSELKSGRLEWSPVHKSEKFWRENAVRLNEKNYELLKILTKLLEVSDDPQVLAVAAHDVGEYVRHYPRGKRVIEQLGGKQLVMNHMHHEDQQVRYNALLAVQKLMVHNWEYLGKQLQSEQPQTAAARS
# [5] = target: T5, HeLa cell extract proteins (Homo sapiens, UniProt P61604)
# T5 construct: endogenous in cells; host or cells: HeLa cell extract
# T5 sequence (P61604 whole entry): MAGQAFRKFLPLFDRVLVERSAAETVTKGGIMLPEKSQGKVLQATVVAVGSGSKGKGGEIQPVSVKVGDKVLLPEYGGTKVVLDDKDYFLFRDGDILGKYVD
# [6] = target: T6, HeLa cell extract proteins (Homo sapiens, UniProt P09972); details: HeLa
# T6 construct: endogenous in cells; host or cells: HeLa cell extract
# T6 sequence (P09972 1-364): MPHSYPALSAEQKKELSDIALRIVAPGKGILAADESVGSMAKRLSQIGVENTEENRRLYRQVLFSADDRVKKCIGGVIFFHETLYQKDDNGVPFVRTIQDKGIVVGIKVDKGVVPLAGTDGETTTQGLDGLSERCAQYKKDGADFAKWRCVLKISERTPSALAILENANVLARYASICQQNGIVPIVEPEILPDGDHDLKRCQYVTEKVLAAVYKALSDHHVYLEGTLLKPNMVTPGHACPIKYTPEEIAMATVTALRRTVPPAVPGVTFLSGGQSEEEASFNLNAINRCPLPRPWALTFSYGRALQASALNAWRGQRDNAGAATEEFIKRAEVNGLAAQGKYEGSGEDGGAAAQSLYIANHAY
# [7] = target: T7, HeLa cell extract proteins (Homo sapiens, UniProt P26038)
# T7 construct: endogenous in cells; host or cells: HeLa cell extract
# [8] = test system: HeLa cell extract proteins
# [9] = target: T8, HeLa cell extract proteins (Homo sapiens, UniProt Q99570); details: HeLa
# T8 construct: endogenous in cells; host or cells: HeLa cell extract
# T8 sequence (Q99570 whole entry): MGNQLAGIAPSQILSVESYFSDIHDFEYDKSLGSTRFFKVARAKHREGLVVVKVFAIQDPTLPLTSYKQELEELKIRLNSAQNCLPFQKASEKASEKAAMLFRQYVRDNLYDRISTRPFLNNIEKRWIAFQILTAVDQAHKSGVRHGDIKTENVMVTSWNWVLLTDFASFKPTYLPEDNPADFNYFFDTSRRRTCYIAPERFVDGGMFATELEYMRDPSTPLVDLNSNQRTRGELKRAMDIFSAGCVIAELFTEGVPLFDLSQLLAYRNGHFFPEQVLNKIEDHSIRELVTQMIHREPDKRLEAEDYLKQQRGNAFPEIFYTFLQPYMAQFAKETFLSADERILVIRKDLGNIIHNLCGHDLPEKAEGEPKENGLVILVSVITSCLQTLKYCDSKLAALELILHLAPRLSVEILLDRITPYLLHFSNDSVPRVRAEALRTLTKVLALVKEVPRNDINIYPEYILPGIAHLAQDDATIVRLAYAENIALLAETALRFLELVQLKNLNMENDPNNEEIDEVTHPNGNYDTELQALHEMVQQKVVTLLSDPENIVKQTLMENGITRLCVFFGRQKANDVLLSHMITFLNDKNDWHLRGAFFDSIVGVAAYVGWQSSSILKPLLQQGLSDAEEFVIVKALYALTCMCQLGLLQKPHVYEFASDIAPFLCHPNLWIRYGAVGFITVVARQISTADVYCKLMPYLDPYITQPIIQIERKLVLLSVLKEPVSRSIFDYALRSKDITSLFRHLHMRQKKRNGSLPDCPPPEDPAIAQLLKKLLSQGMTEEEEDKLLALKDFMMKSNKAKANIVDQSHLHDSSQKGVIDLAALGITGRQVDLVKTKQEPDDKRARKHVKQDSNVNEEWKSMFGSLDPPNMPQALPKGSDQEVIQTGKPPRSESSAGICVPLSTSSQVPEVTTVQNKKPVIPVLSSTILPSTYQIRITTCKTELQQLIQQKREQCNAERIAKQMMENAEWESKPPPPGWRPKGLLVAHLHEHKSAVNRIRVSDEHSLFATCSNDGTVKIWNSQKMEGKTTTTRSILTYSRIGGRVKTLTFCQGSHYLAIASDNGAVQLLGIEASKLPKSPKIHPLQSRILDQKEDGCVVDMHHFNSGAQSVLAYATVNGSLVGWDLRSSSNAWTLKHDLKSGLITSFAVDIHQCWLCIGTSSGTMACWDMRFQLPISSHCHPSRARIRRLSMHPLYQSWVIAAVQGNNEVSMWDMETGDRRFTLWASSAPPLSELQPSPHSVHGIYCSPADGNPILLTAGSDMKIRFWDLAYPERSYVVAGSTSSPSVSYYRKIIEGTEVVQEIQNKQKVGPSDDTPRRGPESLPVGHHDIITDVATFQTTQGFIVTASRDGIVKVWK
# [10] = target: T9, HeLa cell extract proteins (Homo sapiens, UniProt P40227)
# T9 construct: endogenous in cells; host or cells: HeLa cell extract
# T9 sequence (P40227 whole entry): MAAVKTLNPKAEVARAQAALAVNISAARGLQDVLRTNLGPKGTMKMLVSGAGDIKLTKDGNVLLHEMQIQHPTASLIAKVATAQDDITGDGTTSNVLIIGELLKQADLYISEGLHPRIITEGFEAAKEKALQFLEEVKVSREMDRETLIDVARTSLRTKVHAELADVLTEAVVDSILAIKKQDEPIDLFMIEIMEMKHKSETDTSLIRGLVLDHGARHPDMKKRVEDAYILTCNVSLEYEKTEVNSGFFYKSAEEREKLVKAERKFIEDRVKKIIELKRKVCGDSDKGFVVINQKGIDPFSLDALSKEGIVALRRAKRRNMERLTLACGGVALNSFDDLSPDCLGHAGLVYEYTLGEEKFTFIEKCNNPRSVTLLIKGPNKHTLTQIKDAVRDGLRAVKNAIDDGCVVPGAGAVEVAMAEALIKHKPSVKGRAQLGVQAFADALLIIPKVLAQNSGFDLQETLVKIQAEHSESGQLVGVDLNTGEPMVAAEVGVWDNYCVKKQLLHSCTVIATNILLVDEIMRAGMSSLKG
# [11] = target: T10, HeLa cell extract proteins (Homo sapiens, UniProt Q15293); details: HeLa
# T10 construct: endogenous in cells; host or cells: HeLa cell extract
# T10 sequence (Q15293 30-331): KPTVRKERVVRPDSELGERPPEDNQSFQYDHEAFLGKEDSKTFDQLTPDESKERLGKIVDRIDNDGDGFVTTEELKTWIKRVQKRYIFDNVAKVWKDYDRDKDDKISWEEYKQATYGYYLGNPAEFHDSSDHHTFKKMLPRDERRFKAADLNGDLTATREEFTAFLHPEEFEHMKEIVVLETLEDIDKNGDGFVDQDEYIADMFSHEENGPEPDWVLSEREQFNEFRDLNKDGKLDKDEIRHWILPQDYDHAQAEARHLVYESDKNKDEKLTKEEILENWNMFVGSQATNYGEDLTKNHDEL
# [12] = target: T11, HeLa cell extract proteins (Homo sapiens, UniProt O43592); details: HeLa; protein XPOT
# T11 construct: endogenous in cells; host or cells: HeLa cell extract
# T11 sequence (O43592 1-962): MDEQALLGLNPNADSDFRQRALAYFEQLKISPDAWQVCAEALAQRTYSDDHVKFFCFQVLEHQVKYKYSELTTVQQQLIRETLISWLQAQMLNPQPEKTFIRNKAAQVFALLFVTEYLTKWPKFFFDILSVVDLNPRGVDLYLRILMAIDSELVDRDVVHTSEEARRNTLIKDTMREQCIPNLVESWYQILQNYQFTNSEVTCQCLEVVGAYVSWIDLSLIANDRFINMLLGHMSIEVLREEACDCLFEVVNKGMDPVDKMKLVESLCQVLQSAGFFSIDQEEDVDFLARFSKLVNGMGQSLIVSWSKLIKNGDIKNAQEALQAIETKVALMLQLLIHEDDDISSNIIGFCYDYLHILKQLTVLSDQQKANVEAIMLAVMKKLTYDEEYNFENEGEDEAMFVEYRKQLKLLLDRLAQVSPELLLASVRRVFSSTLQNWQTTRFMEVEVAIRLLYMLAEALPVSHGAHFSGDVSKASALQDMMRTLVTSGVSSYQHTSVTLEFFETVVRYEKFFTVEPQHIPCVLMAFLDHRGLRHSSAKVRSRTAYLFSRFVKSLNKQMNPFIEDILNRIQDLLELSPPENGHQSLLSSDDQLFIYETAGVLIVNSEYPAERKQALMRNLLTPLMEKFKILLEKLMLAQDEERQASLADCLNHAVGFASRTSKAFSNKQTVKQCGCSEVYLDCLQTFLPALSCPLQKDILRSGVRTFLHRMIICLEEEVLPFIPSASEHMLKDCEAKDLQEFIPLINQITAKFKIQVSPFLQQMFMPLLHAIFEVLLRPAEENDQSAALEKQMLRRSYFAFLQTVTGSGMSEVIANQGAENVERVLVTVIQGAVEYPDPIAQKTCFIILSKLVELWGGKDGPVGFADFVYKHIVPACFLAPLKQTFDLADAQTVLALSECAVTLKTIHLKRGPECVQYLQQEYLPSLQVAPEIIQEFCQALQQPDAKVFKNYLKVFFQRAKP
# [13] = target: T12, HeLa cell extract proteins (Homo sapiens, UniProt P61019); details: HeLa
# T12 construct: endogenous in cells; host or cells: HeLa cell extract
# T12 sequence (P61019 whole entry): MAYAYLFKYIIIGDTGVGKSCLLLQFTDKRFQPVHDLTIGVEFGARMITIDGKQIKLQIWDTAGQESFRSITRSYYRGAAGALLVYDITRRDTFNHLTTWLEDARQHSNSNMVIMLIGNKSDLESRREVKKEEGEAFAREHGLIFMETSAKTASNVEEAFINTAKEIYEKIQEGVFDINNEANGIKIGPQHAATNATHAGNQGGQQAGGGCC
# [14] = target: T13, HeLa cell extract proteins (Homo sapiens, UniProt P00338); details: HeLa
# T13 construct: endogenous in cells; host or cells: HeLa cell extract
# [15] = HeLa; protein A8MV93_HUMAN (SIMILAR TO CYTOCHROME C.)
# [16] = HeLa; protein CTNNA1 (ISOFORM 2 OF CATENIN ALPHA-1.)
# [17] = HeLa; protein EIF5A (ISOFORM 2 OF EUKARYOTIC TRANSLATION INITIATION FACTOR 5A-1.)
# [18] = HeLa; protein NME1-NME2 (NUCLEOSIDE DIPHOSPHATE KINASE.)
# [19] = protein LDHA (ISOFORM 1 OF L-LACTATE DEHYDROGENASE A CHAIN.)
# T1 sequence (P62333 whole entry): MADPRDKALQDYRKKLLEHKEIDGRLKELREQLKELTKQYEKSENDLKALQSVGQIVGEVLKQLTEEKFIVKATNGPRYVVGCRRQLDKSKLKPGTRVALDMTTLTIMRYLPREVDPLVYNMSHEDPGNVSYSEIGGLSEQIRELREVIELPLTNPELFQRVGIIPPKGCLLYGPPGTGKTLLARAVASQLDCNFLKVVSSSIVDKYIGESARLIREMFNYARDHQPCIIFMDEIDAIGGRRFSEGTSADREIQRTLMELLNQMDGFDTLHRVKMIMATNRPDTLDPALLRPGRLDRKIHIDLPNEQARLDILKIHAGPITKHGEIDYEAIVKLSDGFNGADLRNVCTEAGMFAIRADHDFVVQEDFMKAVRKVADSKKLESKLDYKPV
smiles,measurement,setting,value
CCCCCCOc1cccc(Cc2cnc(N)nc2N)c1 [compound 2],fold changes relative to vehicle control,[1],1.57
same,fold changes relative to vehicle control,[2]; protein EPRS,1.25
same,fold changes relative to vehicle control,[3],1.52
same,fold changes relative to vehicle control,[4],1.21
same,fold changes relative to vehicle control,[5]; protein HSPE1; HeLa,2.39
same,fold changes relative to vehicle control,[6]; protein ALDOC (FRUCTOSE-BISPHOSPHATE ALDOLASE C.),2.35 fold
same,fold changes relative to vehicle control,[7]; protein MSN; HeLa,1.81
same,fold changes relative to vehicle control,[8]; [15],2.46 fold
same,fold changes relative to vehicle control,[8]; [16],2.1 fold
same,fold changes relative to vehicle control,[8]; [17],2.05 fold
same,fold changes relative to vehicle control,[8]; HeLa; protein LOC646960,1.08
same,fold changes relative to vehicle control,[8]; HeLa; protein LOC654188 (SIMILAR TO PEPTIDYLPROLYL ISOMERASE A-LIKE.),2.15 fold
same,fold changes relative to vehicle control,[8]; [18],2.13 fold
same,fold changes relative to vehicle control,[8]; protein EIF1AP1; HeLa,1.77
same,fold changes relative to vehicle control,[8]; protein LOC442497; HeLa,1.38
same,fold changes relative to vehicle control,[8]; protein RPLP0-LIKE; HeLa,1.23
same,fold changes relative to vehicle control,[9]; captured protein PIK3R4,1.07
same,fold changes relative to vehicle control,[10]; protein CCT6A; HeLa,2.04
same,fold changes relative to vehicle control,[11]; captured protein RCN1,1.05
same,fold changes relative to vehicle control,[12],1.02
same,fold changes relative to vehicle control,[13]; captured protein RAB2A,1.09
same,fold changes relative to vehicle control,[14]; [19],2.61 fold
NCCOCCOCC(=O)Nc1nc2ncc(CNc3ccc(C(=O)NC(CCC(=O)O)C(=O)O)cc3)nc2c(=O)[nH]1 (stereo not shown) [compound 6],fold changes relative to vehicle control,[1],1.07
same,fold changes relative to vehicle control,[2]; protein EPRS (BI[…]-TRNA SYNTHETASE),1.19
same,fold changes relative to vehicle control,[3],0.86
same,fold changes relative to vehicle control,[4],1.13
same,fold changes relative to vehicle control,[5]; HeLa; protein HSPE1,1.69
same,fold changes relative to vehicle control,[6]; protein ALDOC,1.06
same,fold changes relative to vehicle control,[7]; HeLa; protein MSN,1.08
same,fold changes relative to vehicle control,[8]; HeLa; captured protein EIF1AP1,1.27
same,fold changes relative to vehicle control,[8]; HeLa; captured protein LOC442497,1.13
same,fold changes relative to vehicle control,"[8]; HeLa; protein ABCB7 (ISOFORM 2 OF ATP-BINDING CASSETTE SUB-FAMILY B MEMBER 7, MIT[…])",1.25
same,fold changes relative to vehicle control,[8]; HeLa; protein ASAH1 (N-ACYLSPHINGOSINE AMIDOHYDROLASE (ACID CERAMIDASE) 1 ISOFORM B),1.17
same,fold changes relative to vehicle control,"[8]; HeLa; protein GTPBP3 (ISOFORM 2 OF TRNA MO[…] GTPBP3, MIT[…])",1.03
same,fold changes relative to vehicle control,[8]; HeLa; protein LOC654188,1.3
same,fold changes relative to vehicle control,[8]; HeLa; protein MYL6 (ISOFORM SMOOTH MUSCLE OF MYOSIN LIGHT POLYPEPTIDE 6),1.7
same,fold changes relative to vehicle control,[8]; HeLa; protein NME1-NME2,1.27
same,fold changes relative to vehicle control,[8]; HeLa; protein PSMA1 (ISOFORM LONG OF […] ALPHA TYPE 1),1.05
same,fold changes relative to vehicle control,[8]; HeLa; protein PSME1 ([…] SUBUNIT 1 ISOFORM 2),1.04
same,fold changes relative to vehicle control,[8]; HeLa; protein RPLP0-LIKE,0.88
same,fold changes relative to vehicle control,[8]; protein HIST2H2BA; HeLa,1.03
same,fold changes relative to vehicle control,[8]; protein LOC646960; HeLa,1.05
same,fold changes relative to vehicle control,[9]; protein PIK3R4,1.2
same,fold changes relative to vehicle control,[10]; HeLa; protein CCT6A,1.19
same,fold changes relative to vehicle control,[11]; protein RCN1,1.11
same,fold changes relative to vehicle control,[12],0.94
same,fold changes relative to vehicle control,[13]; protein RAB2A,1.09
same,fold changes relative to vehicle control,[14]; protein LDHA,1.23
CCCCCCOc1ccc(Cc2cnc(N)nc2N)cc1 [compound 1],fold changes relative to vehicle control,[1],1.1
same,fold changes relative to vehicle control,[2]; protein EPRS,1.06
same,fold changes relative to vehicle control,[3],9.15
same,fold changes relative to vehicle control,[4],1.24
same,fold changes relative to vehicle control,[5]; protein HSPE1; HeLa,1.38
same,fold changes relative to vehicle control,[6]; protein ALDOC (FRUCTOSE-BI[…] C.),1.49 fold
same,fold changes relative to vehicle control,[7]; protein MSN; HeLa,1.07
same,fold changes relative to vehicle control,[8]; [15],1.4 fold
same,fold changes relative to vehicle control,[8]; [16],1.26 fold
same,fold changes relative to vehicle control,[8]; [17],1.5 fold
same,fold changes relative to vehicle control,[8]; HeLa; protein LOC646960,1.15
same,fold changes relative to vehicle control,[8]; HeLa; protein LOC654188 (SIMILAR TO PEPT[…] A-LIKE.),1.34 fold
same,fold changes relative to vehicle control,[8]; [18],1.36 fold
same,fold changes relative to vehicle control,[8]; protein EIF1AP1; HeLa,1.3
same,fold changes relative to vehicle control,[8]; protein LOC442497; HeLa,1.12
same,fold changes relative to vehicle control,[8]; protein RPLP0-LIKE; HeLa,0.94
same,fold changes relative to vehicle control,[9]; captured protein PIK3R4,1.03
same,fold changes relative to vehicle control,[10]; protein CCT6A; HeLa,1.39
same,fold changes relative to vehicle control,[11]; captured protein RCN1,0.9
same,fold changes relative to vehicle control,[12],0.95
same,fold changes relative to vehicle control,[13]; captured protein RAB2A,0.64
same,fold changes relative to vehicle control,[14]; [19],1.48 fold
